In US11912723B2, “KRAS modulators and uses thereof” (Quanta Therapeutics, Inc., priority 2022, dated 2024):

Tested on: AGS (KRAS G12D) cells, phospho-ERK
Assay: pERK In Cell Western (ICW) assay (Method B)
Type: cell-based
Settings: 3 hours
Summary of the method: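 AGS cells seeded at 5,000/well, grown overnight, then treated 3 h at 37 °C with ½-log 10-point dilutions (top 10 μM). Fixed cells stained for phospho-ERK, normalized to DRAQ5 DNA signal and to DMSO control; IC50 from 4-parameter variable-slope fit.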

Row | Structure (SMILES) | IC50 (Homo sapiens) [µM] | IC50 [µM]
1 | N#CNC1CCCN(c2nc(OC[C@@]34CCCN3C[C@H](F)C4)nc3c2COC2(CCc4c(Cl)cccc42)C3)C1 (stereo partly drawn) [Compound 29, [1-[4′-chloro-2-[[(2R,8S)-2-fluoro-1,2,3,5,6,7-hexahydropyrrolizin-8-yl]methoxy]spiro[5,8-dihydropyrano[4,3-d]pyrimidine-7,1′-indane]-4-yl]-3-piperidyl]cyanamide] | 1 to 10 | –
2 | CN(C)C(=O)c1cc2n(n1)CCCN(c1nc(OC[C@@]34CCCN3C[C@H](F)C4)nc3c1CN(C)C1(CCCc4ccc(O)cc41)C3)C2 (stereo partly drawn) [Compound 39, 5-[7′-hydroxy-6-methyl-2-[[(2R,8S)-2-fluoro-1,2,3,5,6,7-hexahydropyrrolizin-8-yl]methoxy]spiro[5,8-dihydropyrido[4,3-d]pyrimidine-7,1′-tetralin]-4-yl]-N,N-dimethyl-4,6,7,8-tetrahydropyrazolo[1,5-a][1,4]diazepine-2-carboxamide] | 1 to 10 | –
3 | CN(C)C(=O)c1cc2n(n1)CCCN(c1nc(OC[C@@]34CCCN3C[C@H](F)C4)nc3c1CN(C)[C@@]1(CCCc4ccc(O)cc41)C3)C2 [Compound 39A, 5-[(7S)-2-[[(2R,8S)-2-fluoro-1,2,3,5,6,7-hexahydropyrrolizin-8-yl]methoxy]-7′-hydroxy-6-methyl-spiro[5,8-dihydropyrido[4,3-d]pyrimidine-7,1′-tetralin]-4-yl]-N,N-dimethyl-4,6,7,8-tetrahydropyrazolo[1,5-a][1,4]diazepine-2-carboxamide] | 0.1 to 1 | –
4 | Cc1c(C(=O)N(C)C)nn2c1CN(c1nc(OC[C@@]34CCCN3C[C@H](F)C4)nc3c1CO[C@@]1(CCc4c(Cl)cccc41)C3)CCC2 [Compound 42, 5-[(7S)-4′-chloro-2-[[(2R,8S)-2-fluoro-1,2,3,5,6,7-hexahydropyrrolizin-8-yl]methoxy]spiro[5,8-dihydropyrano[4,3-d]pyrimidine-7,1′-indane]-4-yl]-N,N,3-trimethyl-4,6,7,8-tetrahydropyrazolo[1,5-a][1,4]diazepine-2-carboxamide] | 0.1 to 1 | –
5 | O=C(c1nn2c(c1Cl)CN(c1nc(OC[C@@]34CCCN3C[C@H](F)C4)nc3c1CO[C@@]1(CCc4c(Cl)cccc41)C3)CCC2)N1CCOCC1 [Compound 45, [3-chloro-5-[(7S)-4′-chloro-2-[[(2R,8S)-2-fluoro-1,2,3,5,6,7-hexahydropyrrolizin-8-yl]methoxy]spiro[5,8-dihydropyrano[4,3-d]pyrimidine-7,1′-indane]-4-yl]-4,6,7,8-tetrahydropyrazolo[1,5-a][1,4]diazepin-2-yl]-morpholino-methanone] | 0.1 to 1 | –
6 | C[C@@]1(NC#N)CCCN(c2nc(OC[C@@]34CCCN3C[C@H](F)C4)nc3c2COC2(CCc4c(Cl)cccc42)C3)C1 (stereo partly drawn) [Compound 46A, [(3R)-1-[(7*)-4′-chloro-2-[[(2R,8S)-2-fluoro-1,2,3,5,6,7-hexahydropyrrolizin-8-yl]methoxy]spiro[5,8-dihydropyrano[4,3-d]pyrimidine-7,1′-indane]-4-yl]-3-methyl-3-piperidyl]cyanamide; 2,2,2-trifluoroacetic acid] | – | > 10
7 | CN(C)C(=O)c1nn2c(c1Cl)CN(c1nc(OCC3(CN4CCOCC4)CC3)nc3c1CO[C@@]1(CCc4c(Cl)cccc41)C3)CCC2 [Compound 47, 3-chloro-5-[(7S)-4′-chloro-2-[[1-(morpholinomethyl)cyclopropyl]methoxy]spiro[5,8-dihydropyrano[4,3-d]pyrimidine-7,1′-indane]-4-yl]-N,N-dimethyl-4,6,7,8-tetrahydropyrazolo[1,5-a][1,4]diazepine-2-carboxamide] | 1 to 10 | –
8 | O=C(c1nn2c(c1Cl)CN(c1nc(OC[C@@]34CCCN3C[C@H](F)C4)nc3c1CO[C@@]1(CCc4c(Cl)cccc41)C3)CCC2)N1CCNCC1 [Compound 49, [3-chloro-5-[(7S)-4′-chloro-2-[[(2R,8S)-2-fluoro-1,2,3,5,6,7-hexahydropyrrolizin-8-yl]methoxy]spiro[5,8-dihydropyrano[4,3-d]pyrimidine-7,1′-indane]-4-yl]-4,6,7,8-tetrahydropyrazolo[1,5-a][1,4]diazepin-2-yl]-piperazin-1-yl-methanone] | 0.1 to 1 | –
9 | CN1CCN(C(=O)c2nn3c(c2Cl)CN(c2nc(OC[C@@]45CCCN4C[C@H](F)C5)nc4c2CO[C@@]2(CCc5c(Cl)cccc52)C4)CCC3)CC1 [Compound 50, [3-chloro-5-[(7S)-4′-chloro-2-[[(2R,8S)-2-fluoro-1,2,3,5,6,7-hexahydropyrrolizin-8-yl]methoxy]spiro[5,8-dihydropyrano[4,3-d]pyrimidine-7,1′-indane]-4-yl]-4,6,7,8-tetrahydropyrazolo[1,5-a][1,4]diazepin-2-yl]-(4-methylpiperazin-1-yl)methanone] | 0.1 to 1 | –
10 | CN(C)C(=O)c1nn2c(c1Cl)CN(c1nc(OC[C@@]34CCCN3C[C@H](F)C4)nc3c1CN(C)[C@@]1(CCc4c(Cl)cccc41)C3)CCC2 [Compound 55, 3-chloro-5-((S)-4-chloro-2′-(((2R,7aS)-2-fluorotetrahydro-1H-pyrrolizin-7a(5H)-yl)methoxy)-6′-methyl-2,3,5′,8′-tetrahydro-6′H-spiro[indene-1,7′-pyrido[4,3-d]pyrimidin]-4′-yl)-N,N-dimethyl-5,6,7,8-tetrahydro-4H-pyrazolo[1,5-a][1,4]diazepine-2-carboxamide] | 0.1 to 1 | –
11 | CN1Cc2c(nc(OC[C@@]34CCCN3C[C@H](F)C4)nc2N2CCC[C@]3(C2)NC(=O)NC3=O)C[C@]12CCc1ccccc12 [Compound 60, (5R)-9-[(7S)-2-[[(2R,8S)-2-fluoro-1,2,3,5,6,7-hexahydropyrrolizin-8-yl]methoxy]-6-methyl-spiro[5,8-dihydropyrido[4,3-d]pyrimidine-7,1′-indane]-4-yl]-1,3,9-triazaspiro[4.5]decane-2,4-dione] | > 10 | –
12 | CN(C)C(=O)c1nn2c(c1Cl)CN(c1nc(OC[C@@]34CCCN3C[C@H](F)C4)nc3c1CN(C)[C@@]1(CCc4c(F)ccc(F)c41)C3)CCC2 [Compound 61, 3-chloro-5-[(7S)-4′,7′-difluoro-2-[[(2R,8S)-2-fluoro-1,2,3,5,6,7-hexahydropyrrolizin-8-yl]methoxy]-6-methyl-spiro[5,8-dihydropyrido[4,3-d]pyrimidine-7,1′-indane]-4-yl]-N,N-dimethyl-4,6,7,8-tetrahydropyrazolo[1,5-a][1,4]diazepine-2-carboxamide] | 0.01 to 0.1 | –
13 | CN(C)C(=O)c1nn2c(c1Cl)CN(c1nc(OC[C@@]34CCCN3C[C@H](F)C4)nc3c1CN(C)[C@@]1(CCc4cccc(F)c41)C3)CCC2 [Compound 63, 3-chloro-5-[(7S)-7′-fluoro-2-[[(2R,8S)-2-fluoro-1,2,3,5,6,7-hexahydropyrrolizin-8-yl]methoxy]-6-methyl-spiro[5,8-dihydropyrido[4,3-d]pyrimidine-7,1′-indane]-4-yl]-N,N-dimethyl-4,6,7,8-tetrahydropyrazolo[1,5-a][1,4]diazepine-2-carboxamide] | 0.01 to 0.1 | –
14 | CN(C)C(=O)c1nn2c(c1Cl)CN(c1nc(OC[C@@]34CCCN3C[C@H](F)C4)nc3c1CN(C)[C@@]1(CCc4c(F)cccc41)C3)CCC2 [Compound 65, 3-chloro-5-[(7S)-4′-fluoro-2-[[(2R,8S)-2-fluoro-1,2,3,5,6,7-hexahydropyrrolizin-8-yl]methoxy]-6-methyl-spiro[5,8-dihydropyrido[4,3-d]pyrimidine-7,1′-indane]-4-yl]-N,N-dimethyl-4,6,7,8-tetrahydropyrazolo[1,5-a][1,4]diazepine-2-carboxamide] | 0.01 to 0.1 | –
15 | CN(C)C(=O)c1nn2c(c1Cl)CN(c1nc(OC[C@@]34CCCN3C[C@H](F)C4)nc3c1CN(C)[C@@]1(CCc4cccc(Cl)c41)C3)CCC2 [Compound 69, 3-chloro-5-[(7S)-7′-chloro-2-[[(2R,8S)-2-fluoro-1,2,3,5,6,7-hexahydropyrrolizin-8-yl]methoxy]-6-methyl-spiro[5,8-dihydropyrido[4,3-d]pyrimidine-7,1′-indane]-4-yl]-N,N-dimethyl-4,6,7,8-tetrahydropyrazolo[1,5-a][1,4]diazepine-2-carboxamide] | 0.01 to 0.1 | –
16 | CN(C)C(=O)c1cc2n(n1)CCCN(c1nc(OC[C@@]34CCCN3C[C@H](F)C4)nc3c1CN(C)[C@@]1(CCCc4ccccc41)C3)C2 [Compound 72, 5-[(7S)-2-[[(2R,8S)-2-fluoro-1,2,3,5,6,7-hexahydropyrrolizin-8-yl]methoxy]-6-methyl-spiro[5,8-dihydropyrido[4,3-d]pyrimidine-7,1′-tetralin]-4-yl]-N,N-dimethyl-4,6,7,8-tetrahydropyrazolo[1,5-a][1,4]diazepine-2-carboxamide] | 0.1 to 1 | –
17 | CN1Cc2c(nc(OC[C@@]34CCCN3C[C@H](F)C4)nc2N2CCCn3nc(N)c(Cl)c3C2)C[C@]12CCCc1ccccc12 [Compound 79, 3-chloro-5-[(7S)-2-[[(2R,8S)-2-fluoro-1,2,3,5,6,7-hexahydropyrrolizin-8-yl]methoxy]-6-methyl-spiro[5,8-dihydropyrido[4,3-d]pyrimidine-7,1′-tetralin]-4-yl]-4,6,7,8-tetrahydropyrazolo[1,5-a][1,4]diazepin-2-amine] | 1 to 10 | –
18 | CN1Cc2c(nc(OC[C@@]34CCCN3C[C@H](F)C4)nc2N2C[C@H]3CC[C@@H](C2)N3)C[C@]12CCCc1ccccc12 [Compound 84, (7S)-4-[(1R,5S)-3,8-diazabicyclo[3.2.1]octan-3-yl]-2-[[(2R,8S)-2-fluoro-1,2,3,5,6,7-hexahydropyrrolizin-8-yl]methoxy]-6-methyl-spiro[5,8-dihydropyrido[4,3-d]pyrimidine-7,1′-tetralin]] | 1 to 10 | –
19 | Cc1nc(-c2nn3c(c2Cl)CN(c2nc(OC[C@@]45CCCN4C[C@H](F)C5)nc4c2CN(C)[C@@]2(CCCc5ccccc52)C4)CCC3)no1 [Compound 87, 3-[3-chloro-5-[(7S)-2-[[(2R,8S)-2-fluoro-1,2,3,5,6,7-hexahydropyrrolizin-8-yl]methoxy]-6-methyl-spiro[5,8-dihydropyrido[4,3-d]pyrimidine-7,1′-tetralin]-4-yl]-4,6,7,8-tetrahydropyrazolo[1,5-a][1,4]diazepin-2-yl]-5-methyl-1,2,4-oxadiazole] | 0.1 to 1 | –
